{
  "source": "patent US4588720A",
  "about": "“Imidazo[1,2-a]pyrimidines” (Roussel Uclaf, priority 1982, dated 1986)",
  "key": {"[1]": {"test": "Anxiolytic activity, Geller conflict method (Geller and Seifter)", "type": "in vivo", "settings": "po; modified Geller and Seifter conflict method; read-out: Geller Conflict (MED mg/kg po), minimum effective dose at which there was an observed increase in shocks above control", "procedure": "Screening for anxiolytic activity was carried out by modifications of the conflict method of Geller and Seifter (Psychopharmacologia, (1960), Volume I, p. 482). The values given in Table VI are the minimum effective doses at which there was an observed increase in shocks above control (MED me/kg po)."}, "[2]": {"target": "benzodiazepine receptors", "test": "Affinity for benzodiazepine receptors ([3H] flunitrazepam radioreceptor binding)", "settings": "inhibition of specific binding of 0.6 nM [^3 H] flunitrazepam, rat forebrain membrane preparations; read-out: Receptor Binding (IC50 nM)", "procedure": "A. Affinity for benzodiazepine receptors\nThe affinity of the compounds for benzodiazepine receptors was assessed using the radioligand [^3 H] flunitrazepam and modifications of the original radioreceptor binding method of Squares and Braestrup (Nature, Vol. 266 (1977) p. 732). The values given in Table VI are nanomolar concentrations of test compound which inhibited the specific binding of 0.6 nM[^3 H] flunitrazepam to rat forebrain membrain preparations by 50% (IC50 nM)."}},
  "data": [
    {"smiles": "C=CCc1c(OC)nc2nc(C(=O)c3ccccc3)cn2c1CCC", "note": "[Example 37, [6-Allyl-7-methoxy-5-n-propylimidazo[1,2-a]pyrimidin-2-yl]phenylmethanone]", "values": [
      {"measurement": "minimal effective dose", "setting": "[1]", "result": 50, "unit": "mg/kg"},
      {"measurement": "IC50", "setting": "[2]", "result": 135, "unit": "nM"}
    ]},
    {"smiles": "CCc1cn2cc(C(=O)c3ccccc3)nc2nc1OC", "note": "[Example 38, [6-Ethyl-7-methoxyimidazo[1,2-a]pyrimidin-2-yl]phenylmethanone]", "values": [
      {"measurement": "minimal effective dose", "setting": "[1]", "result": 5, "unit": "mg/kg"},
      {"measurement": "IC50", "setting": "[2]", "result": 1500, "unit": "nM"}
    ]},
    {"smiles": "CCCCc1c(C)c(OC)nc2nc(C(=O)c3ccccc3)cn12", "note": "[Example 39, [5-n-Butyl-7-methoxy-6-methylimidazo[1,2-a]pyrimidin-2-yl]phenylmethanone]", "values": [
      {"measurement": "minimal effective dose", "setting": "[1]", "result": 50, "unit": "mg/kg"},
      {"measurement": "IC50", "setting": "[2]", "result": 400, "unit": "nM"}
    ]},
    {"smiles": "CCCc1cn2cc(C(=O)c3ccccc3)nc2nc1OC", "note": "[Example 40, [7-Methoxy-6-n-propylimidazo[1,2-a]pyrimidin-2-yl]phenylmethanone]", "values": [
      {"measurement": "minimal effective dose", "setting": "[1]", "result": 50, "unit": "mg/kg"},
      {"measurement": "IC50", "setting": "[2]", "result": 1900, "unit": "nM"}
    ]},
    {"smiles": "CCCCc1cn2cc(C(=O)c3ccccc3)nc2nc1OC", "note": "[Example 41, [6-n-Butyl-7-methoxyimidazo[1,2-a]pyrimidin-2-yl]phenylmethanone]", "values": [
      {"measurement": "minimal effective dose", "setting": "[1]", "result": 50, "unit": "mg/kg"},
      {"measurement": "IC50", "setting": "[2]", "result": 300, "unit": "nM"}
    ]},
    {"smiles": "COc1nc2nc(C(=O)c3ccccc3)cn2cc1C", "note": "[Example 42, [7-Methoxy-6-methylimidazo[1,2-a]pyrimidin-2-yl]phenylmethanone]", "values": [
      {"measurement": "minimal effective dose", "setting": "[1]", "result": 50, "unit": "mg/kg"},
      {"measurement": "IC50", "setting": "[2]", "result": 5900, "unit": "nM"}
    ]},
    {"smiles": "CCCCc1cc(OC)nc2nc(C(=O)c3ccccc3)cn12", "note": "[Example 43, [5-n-Butyl-7-methoxyimidazo[1,2-a]pyrimidin-2-yl]phenylmethanone]", "values": [
      {"measurement": "minimal effective dose", "setting": "[1]", "result": 10, "unit": "mg/kg"},
      {"measurement": "IC50", "setting": "[2]", "result": 340, "unit": "nM"}
    ]},
    {"smiles": "C=CCc1c(OC)nc2nc(C(=O)c3ccccc3)cn2c1CC", "note": "[Example 44, [6-Allyl-5-ethyl-7-methoxyimidazo[1,2-a]pyrimidin-2-yl]phenylmethanone]", "values": [
      {"measurement": "minimal effective dose", "setting": "[1]", "result": 10, "unit": "mg/kg"},
      {"measurement": "IC50", "setting": "[2]", "result": 42, "unit": "nM"}
    ]},
    {"smiles": "CCCCc1c(CC)c(OC)nc2nc(C(=O)c3ccccc3)cn12", "note": "[Example 45, [5-n-Butyl-6-ethyl-7-methoxyimidazo[1,2-a]pyrimidin-2-yl]phenylmethanone]", "values": [
      {"measurement": "minimal effective dose", "setting": "[1]", "result": 50, "unit": "mg/kg"},
      {"measurement": "IC50", "setting": "[2]", "result": 500, "unit": "nM"}
    ]},
    {"smiles": "CCCCc1c(CCC)c(OC)nc2nc(C(=O)c3ccccc3)cn12", "note": "[Example 46, [5-n-Butyl-7-methoxy-6-n-propylimidazo[1,2-a]pyrimidin-2-yl]phenylmethanone]", "values": [
      {"measurement": "minimal effective dose", "setting": "[1]", "result": 20, "unit": "mg/kg"},
      {"measurement": "IC50", "setting": "[2]", "result": 1200, "unit": "nM"}
    ]},
    {"smiles": "CCCCCc1c(OC)nc2nc(C(=O)c3ccccc3)cn2c1C", "note": "[Example 47, [7-Methoxy-5-methyl-6-n-pentylimidazo[1,2-a]pyrimidin-2-yl]phenylmethanone]", "values": [
      {"measurement": "minimal effective dose", "setting": "[1]", "result": 20, "unit": "mg/kg"},
      {"measurement": "IC50", "setting": "[2]", "result": 107, "unit": "nM"}
    ]},
    {"smiles": "COc1nc2nc(C(=O)c3ccccc3)cn2c(C)c1CC(C)C", "note": "[Example 48, [6-iso-Butyl-7-methoxy-5-methylimidazo[1,2-a]pyrimidin-2-yl]phenylmethanone]", "values": [
      {"measurement": "minimal effective dose", "setting": "[1]", "result": 20, "unit": "mg/kg"},
      {"measurement": "IC50", "setting": "[2]", "result": 400, "unit": "nM"}
    ]},
    {"smiles": "CCc1c(SC)nc2nc(C(=O)c3ccccc3)cn2c1C", "note": "[Example 49, [6-ethyl-5-methyl-7-(methylthio)imidazo[1,2-a]pyrimidin-2-yl]phenylmethanone]", "values": [
      {"measurement": "minimal effective dose", "setting": "[1]", "result": 2, "unit": "mg/kg"},
      {"measurement": "IC50", "setting": "[2]", "result": 12, "unit": "nM"}
    ]},
    {"smiles": "CCc1c(OC)nc2nc(C(=O)c3ccc(OC)cc3)cn2c1C", "note": "[Example 54, (6-Ethyl-7-methoxy-5-methylimidazo[1,2-a]pyrimidin-2-yl)(4-methoxyphenyl)methanone]", "values": [
      {"measurement": "minimal effective dose", "setting": "[1]", "result": 10, "unit": "mg/kg"},
      {"measurement": "IC50", "setting": "[2]", "result": 59, "unit": "nM"}
    ]},
    {"smiles": "CCc1c(OC)nc2nc(C(=O)c3ccc(Cl)cc3)cn2c1C", "note": "[Example 55, (6-ethyl 7-methoxy 5-methylimidazo/1,2-a/pyrimidin-2-yl)(4-chlorophenyl)methanone]", "values": [
      {"measurement": "minimal effective dose", "setting": "[1]", "result": 50, "unit": "mg/kg"},
      {"measurement": "IC50", "setting": "[2]", "result": 85, "unit": "nM"}
    ]},
    {"smiles": "CCc1c(OC)nc2nc(C(=O)c3ccc(C)cc3)cn2c1C", "note": "[Example 56, (6-ethyl 7-methoxy 5-methylimidazo/1,2-a/pyrimidin-2-yl)(4-methylphenyl)methanone]", "values": [
      {"measurement": "minimal effective dose", "setting": "[1]", "result": 50, "unit": "mg/kg"},
      {"measurement": "IC50", "setting": "[2]", "result": 68, "unit": "nM"}
    ]},
    {"smiles": "CCc1c(OC)nc2nc(C(=O)c3ccccc3Cl)cn2c1C", "note": "[Example 57, (6-ethyl 7-methoxy 5-methylimidazo/1,2-a/pyrimidin-2-yl)(2-chlorophenyl)methanone]", "values": [
      {"measurement": "minimal effective dose", "setting": "[1]", "result": 50, "unit": "mg/kg"},
      {"measurement": "IC50", "setting": "[2]", "result": 100, "unit": "nM"}
    ]},
    {"smiles": "CCc1c(OC)nc2nc(C(=O)c3cccc(OC)c3)cn2c1C", "note": "[Example 58, (6-ethyl 7-methoxy 5-methylimidazo/1,2-a/pyrimidin-2-yl)(3-methoxyphenyl)methanone]", "values": [
      {"measurement": "minimal effective dose", "setting": "[1]", "result": 50, "unit": "mg/kg"},
      {"measurement": "IC50", "setting": "[2]", "result": 500, "unit": "nM"}
    ]},
    {"smiles": "CCc1c(OC)nc2nc(C(=O)c3ccc(SC)cc3)cn2c1C", "note": "[Example 59, (6-ethyl 7-methoxy 5-methylimidazo/1,2-a/pyrimidin-2-yl)(4-methylthiophenyl)methanone]", "values": [
      {"measurement": "minimal effective dose", "setting": "[1]", "result": 50, "unit": "mg/kg"},
      {"measurement": "IC50", "setting": "[2]", "result": 300, "unit": "nM"}
    ]}
  ]
}
